Measurements published in PubChem BioAssay AID248 (DTP/NCI, 2004).
Several values for one entry are separate records, joined by “and”; a condition that tells them apart may be missing. Identical values can stand only once. Inconclusive results and toxic doses are left out. No stated cut-off is given here; in the data, active means T/C of 150% or more; inactive means T/C below 125%.

Tested on: L1210 leukemia ip in BDF1 mice, survival T/C
Test: NCI In Vivo Anticancer Drug Screen. Data for tumor model L1210 Leukemia (intraperitoneal) in B6D2F1 (BDF1) mice
Details: higher = longer survival
Outline: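 Survival endpoint. Drug-treated group vs vehicle group, expressed as T divided by C. Tumor passaged by transplantation.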

Measured: T/C

N=C(N)SCc1c2ccccc2c(CSC(=N)N)c2ccccc12
inactive: endpoint: mean survival time, dose: 0.1 mg/kg/injection, schedule: Q07DX002 (ip), vehicle: saline 97 % of control | endpoint: mean survival time, dose: 0.11 mg/kg/injection, schedule: Q01DX Z (ip), vehicle: saline 110 % of control | endpoint: mean survival time, dose: 0.2 mg/kg/injection, schedule: Q01DX Z (ip), vehicle: carboxymethylcellulose (CMC) 113 % of control | endpoint: mean survival time, dose: 0.2 mg/kg/injection, schedule: Q07DX002 (ip), vehicle: saline 103 % of control | endpoint: mean survival time, dose: 0.3 mg/kg/injection, schedule: Q01DX Z (ip), vehicle: carboxymethylcellulose (CMC) 110 % of control | endpoint: mean survival time, dose: 0.3 mg/kg/injection, schedule: Q03HX008 (ip), vehicle: other 113 % of control | endpoint: mean survival time, dose: 0.37 mg/kg/injection, schedule: Q01DX Z (ip), vehicle: carboxymethylcellulose (CMC) 103 % of control | endpoint: mean survival time, dose: 0.39 mg/kg/injection, schedule: Q07DX002 (ip), vehicle: saline 92 % of control | endpoint: mean survival time, dose: 0.62 mg/kg/injection, schedule: Q#A X Z (ip), vehicle: carboxymethylcellulose (CMC) 111 % of control | endpoint: mean survival time, dose: 0.63 mg/kg/injection, schedule: Q01DX Z (im), vehicle: carboxymethylcellulose (CMC) 112 % of control | endpoint: mean survival time, dose: 0.63 mg/kg/injection, schedule: Q01DX Z (sc), vehicle: carboxymethylcellulose (CMC) 106 % of control | endpoint: mean survival time, dose: 0.75 mg/kg/injection, schedule: Q01DX Z (im), vehicle: carboxymethylcellulose (CMC) 106 % of control | endpoint: mean survival time, dose: 0.78 mg/kg/injection, schedule: Q07DX002 (ip), vehicle: saline 110 % of control | endpoint: mean survival time, dose: 1.25 mg/kg/injection, schedule: Q01DX009 (sc), vehicle: carboxymethylcellulose (CMC) 92 % of control | endpoint: mean survival time, dose: 1.25 mg/kg/injection, schedule: Q01DX Z (sc), vehicle: carboxymethylcellulose (CMC) 103 % of control and 112 % of control | endpoint: mean survival time, dose: 1.5 mg/kg/injection, schedule: Q01DX Z (ip), vehicle: saline 112 % of control | endpoint: mean survival time, dose: 2.5 mg/kg/injection, schedule: Q01DX009 (sc), vehicle: carboxymethylcellulose (CMC) 92 % of control | endpoint: mean survival time, dose: 2.5 mg/kg/injection, schedule: Q01DX Z (sc), vehicle: carboxymethylcellulose (CMC) 106 % of control and 113 % of control | endpoint: mean survival time, dose: 3.12 mg/kg/injection, schedule: Q01DX Z (im), vehicle: carboxymethylcellulose (CMC) 112 % of control | endpoint: mean survival time, dose: 3.12 mg/kg/injection, schedule: Q01DX Z (ip), vehicle: carboxymethylcellulose (CMC) 112 % of control | endpoint: mean survival time, dose: 5.0 mg/kg/injection, schedule: Q01DX006 (iv), vehicle: carboxymethylcellulose (CMC) 108 % of control | endpoint: mean survival time, dose: 5.0 mg/kg/injection, schedule: Q01DX009 (sc), vehicle: carboxymethylcellulose (CMC) 92 % of control | endpoint: mean survival time, dose: 5.0 mg/kg/injection, schedule: Q01DX Z (im), vehicle: carboxymethylcellulose (CMC) 113 % of control | endpoint: mean survival time, dose: 10.0 mg/kg/injection, schedule: Q01DX006 (iv), vehicle: carboxymethylcellulose (CMC) 96 % of control and 111 % of control | endpoint: mean survival time, dose: 10.0 mg/kg/injection, schedule: Q01DX009 (sc), vehicle: carboxymethylcellulose (CMC) 98 % of control | endpoint: mean survival time, dose: 10.0 mg/kg/injection, schedule: Q01DX Z (oral), vehicle: carboxymethylcellulose (CMC) 108 % of control | endpoint: mean survival time, dose: 10.0 mg/kg/injection, schedule: Q01DX Z (sc), vehicle: carboxymethylcellulose (CMC) 108 % of control | endpoint: mean survival time, dose: 12.5 mg/kg/injection, schedule: Q01DX Z (im), vehicle: carboxymethylcellulose (CMC) 110 % of control | endpoint: mean survival time, dose: 12.5 mg/kg/injection, schedule: Q03HX008 (ip), vehicle: carboxymethylcellulose (CMC) 107 % of control | endpoint: mean survival time, dose: 17.0 mg/kg/injection, schedule: Q01DX001 (ip), vehicle: carboxymethylcellulose (CMC) 111 % of control | endpoint: mean survival time, dose: 20.0 mg/kg/injection, schedule: Q01DX001 (sc), vehicle: carboxymethylcellulose (CMC) 98 % of control | endpoint: mean survival time, dose: 20.0 mg/kg/injection, schedule: Q01DX006 (iv), vehicle: carboxymethylcellulose (CMC) 112 % of control | endpoint: mean survival time, dose: 20.0 mg/kg/injection, schedule: Q01DX009 (sc), vehicle: carboxymethylcellulose (CMC) 95 % of control and 100 % of control | endpoint: mean survival time, dose: 20.0 mg/kg/injection, schedule: Q01DX Z (im), vehicle: carboxymethylcellulose (CMC) 106 % of control | endpoint: mean survival time, dose: 20.0 mg/kg/injection, schedule: Q01DX Z (oral), vehicle: carboxymethylcellulose (CMC) 111 % of control | endpoint: mean survival time, dose: 20.0 mg/kg/injection, schedule: Q01DX Z (sc), vehicle: carboxymethylcellulose (CMC) 106 % of control and 109 % of control | endpoint: mean survival time, dose: 25.0 mg/kg/injection, schedule: Q01DX017 (ip), vehicle: carboxymethylcellulose (CMC) 102 % of control | endpoint: mean survival time, dose: 25.0 mg/kg/injection, schedule: Q03HX040 (ip), vehicle: carboxymethylcellulose (CMC) 100 % of control | endpoint: mean survival time, dose: 30.0 mg/kg/injection, schedule: Q01DX009 (sc), vehicle: carboxymethylcellulose (CMC) 100 % of control | endpoint: mean survival time, dose: 32.0 mg/kg/injection, schedule: Q03HX024 (ip), vehicle: carboxymethylcellulose (CMC) 97 % of control | endpoint: mean survival time, dose: 32.0 mg/kg/injection, schedule: Q03HX024 (ip), vehicle: other 101 % of control | endpoint: mean survival time, dose: 40.0 mg/kg/injection, schedule: Q01DX001 (sc), vehicle: carboxymethylcellulose (CMC) 104 % of control | endpoint: mean survival time, dose: 41.0 mg/kg/injection, schedule: Q01DX Z (ip), vehicle: saline 105 % of control | endpoint: mean survival time, dose: 44.0 mg/kg/injection, schedule: Q01DX009 (sc), vehicle: carboxymethylcellulose (CMC) 101 % of control | endpoint: mean survival time, dose: 48.0 mg/kg/injection, schedule: Q01DX Z (ip), vehicle: carboxymethylcellulose (CMC) 101 % of control | endpoint: mean survival time, dose: 50.0 mg/kg/injection, schedule: Q03HX008 (ip), vehicle: carboxymethylcellulose (CMC) 113 % of control | endpoint: mean survival time, dose: 50.0 mg/kg/injection, schedule: Q03HX016 (ip), vehicle: carboxymethylcellulose (CMC) 94 % of control | endpoint: mean survival time, dose: 50.0 mg/kg/injection, schedule: Q03HX024 (ip), vehicle: carboxymethylcellulose (CMC) 102 % of control | endpoint: mean survival time, dose: 61.5 mg/kg/injection, schedule: Q01DX Z (ip), vehicle: saline 92 % of control | endpoint: mean survival time, dose: 66.0 mg/kg/injection, schedule: Q01DX009 (sc), vehicle: carboxymethylcellulose (CMC) 102 % of control | endpoint: mean survival time, dose: 80.0 mg/kg/injection, schedule: Q01DX001 (sc), vehicle: carboxymethylcellulose (CMC) 103 % of control | endpoint: mean survival time, dose: 80.0 mg/kg/injection, schedule: Q01DX Z (oral), vehicle: carboxymethylcellulose (CMC) 105 % of control and 106 % of control | endpoint: mean survival time, dose: 100.0 mg/kg/injection, schedule: Q01DX009 (ip), vehicle: saline 92 % of control | endpoint: mean survival time, dose: 100.0 mg/kg/injection, schedule: Q01DX009 (sc), vehicle: carboxymethylcellulose (CMC) 107 % of control | endpoint: mean survival time, dose: 100.0 mg/kg/injection, schedule: Q06HX004 (ip), vehicle: carboxymethylcellulose (CMC) 93 % of control | endpoint: mean survival time, dose: 100.0 mg/kg/injection, schedule: Q08DX003 (ip), vehicle: carboxymethylcellulose (CMC) 108 % of control | endpoint: mean survival time, dose: 160.0 mg/kg/injection, schedule: Q01DX001 (sc), vehicle: carboxymethylcellulose (CMC) 103 % of control | endpoint: mean survival time, dose: 200.0 mg/kg/injection, schedule: Q01DX009 (ip), vehicle: carboxymethylcellulose (CMC) 113 % of control | endpoint: mean survival time, dose: 200.0 mg/kg/injection, schedule: Q01DX017 (ip), vehicle: carboxymethylcellulose (CMC) 105 % of control | endpoint: mean survival time, dose: 200.0 mg/kg/injection, schedule: Q01DX Z (im), vehicle: carboxymethylcellulose (CMC) 112 % of control | endpoint: mean survival time, dose: 200.0 mg/kg/injection, schedule: Q08DX002 (ip), vehicle: carboxymethylcellulose (CMC) 113 % of control | endpoint: mean survival time, dose: 200.0 mg/kg/injection, schedule: Q08DX003 (ip), vehicle: carboxymethylcellulose (CMC) 104 % of control | endpoint: mean survival time, dose: 200.0 mg/kg/injection, schedule: Q#A X002 (ip), vehicle: saline 111 % of control | endpoint: mean survival time, dose: 266.0 mg/kg/injection, schedule: Q01DX001 (sc), vehicle: carboxymethylcellulose (CMC) 103 % of control | endpoint: mean survival time, dose: 300.0 mg/kg/injection, schedule: Q03DX Z (ip), vehicle: saline 113 % of control | endpoint: mean survival time, dose: 320.0 mg/kg/injection, schedule: Q01DX001 (sc), vehicle: carboxymethylcellulose (CMC) 103 % of control | endpoint: mean survival time, dose: 320.0 mg/kg/injection, schedule: Q01DX Z (oral), vehicle: carboxymethylcellulose (CMC) 112 % of control | endpoint: mean survival time, dose: 400.0 mg/kg/injection, schedule: Q01DX001 (oral), vehicle: carboxymethylcellulose (CMC) 106 % of control | endpoint: mean survival time, dose: 400.0 mg/kg/injection, schedule: Q01DX001 (sc), vehicle: carboxymethylcellulose (CMC) 102 % of control | endpoint: mean survival time, dose: 400.0 mg/kg/injection, schedule: Q04DX005 (ip), vehicle: carboxymethylcellulose (CMC) 97 % of control | endpoint: mean survival time, dose: 400.0 mg/kg/injection, schedule: Q07DX Z (ip), vehicle: saline 102 % of control | endpoint: mean survival time, dose: 400.0 mg/kg/injection, schedule: Q08DX002 (ip), vehicle: saline 97 % of control | endpoint: mean survival time, dose: 600.0 mg/kg/injection, schedule: Q01DX001 (sc), vehicle: carboxymethylcellulose (CMC) 98 % of control | endpoint: mean survival time, dose: 640.0 mg/kg/injection, schedule: Q01DX Z (oral), vehicle: carboxymethylcellulose (CMC) 112 % of control | endpoint: mean survival time, dose: 800.0 mg/kg/injection, schedule: Q01DX001 (oral), vehicle: carboxymethylcellulose (CMC) 105 % of control | endpoint: mean survival time, dose: 800.0 mg/kg/injection, schedule: Q08DX002 (ip), vehicle: carboxymethylcellulose (CMC) 109 % of control and 111 % of control | endpoint: mean survival time, dose: 800.0 mg/kg/injection, schedule: Q08DX003 (ip), vehicle: carboxymethylcellulose (CMC) 107 % of control | endpoint: mean survival time, dose: 900.0 mg/kg/injection, schedule: Q01DX001 (sc), vehicle: carboxymethylcellulose (CMC) 112 % of control | endpoint: mean survival time, dose: 1200.0 mg/kg/injection, schedule: Q01DX001 (oral), vehicle: carboxymethylcellulose (CMC) 97 % of control | endpoint: mean survival time, dose: 1280.0 mg/kg/injection, schedule: Q01DX Z (oral), vehicle: carboxymethylcellulose (CMC) 101 % of control | endpoint: mean survival time, dose: 1340.0 mg/kg/injection, schedule: Q01DX001 (oral), vehicle: carboxymethylcellulose (CMC) 107 % of control | endpoint: mean survival time, dose: 1600.0 mg/kg/injection, schedule: Q01DX001 (oral), vehicle: carboxymethylcellulose (CMC) 100 % of control | endpoint: mean survival time, dose: 2000.0 mg/kg/injection, schedule: Q01DX001 (oral), vehicle: carboxymethylcellulose (CMC) 112 % of control | endpoint: mean survival time, dose: 3000.0 mg/kg/injection, schedule: Q01DX001 (oral), vehicle: carboxymethylcellulose (CMC) 101 % of control | endpoint: median survival time, dose: 50.0 mg/kg/injection, schedule: Q04DX003 (ip), vehicle: steriod suspending solution 111 % of control | endpoint: median survival time, dose: 100.0 mg/kg/injection, schedule: Q01DX009 (ip), vehicle: steriod suspending solution 94 % of control | endpoint: median survival time, dose: 100.0 mg/kg/injection, schedule: Q04DX003 (ip), vehicle: steriod suspending solution 111 % of control | endpoint: median survival time, dose: 125.0 mg/kg/injection, schedule: Q01DX001 (sc), vehicle: steriod suspending solution 100 % of control | endpoint: median survival time, dose: 250.0 mg/kg/injection, schedule: Q01DX001 (sc), vehicle: steriod suspending solution 111 % of control | endpoint: median survival time, dose: 400.0 mg/kg/injection, schedule: Q04DX003 (sc), vehicle: steriod suspending solution 111 % of control | endpoint: median survival time, dose: 500.0 mg/kg/injection, schedule: Q01DX001 (sc), vehicle: steriod suspending solution 100 % of control | endpoint: median survival time, dose: 800.0 mg/kg/injection, schedule: Q04DX003 (sc), vehicle: steriod suspending solution 111 % of control | endpoint: median survival time, dose: 1000.0 mg/kg/injection, schedule: Q01DX001 (sc), vehicle: steriod suspending solution 105 % of control
